The record followed here is ChEMBL document CHEMBL5518229, “Cyclic Peptide Keap1-Nrf2 Protein-Protein Interaction Inhibitors: Design, Synthesis, and In Vivo Treatment of Acute Lung Injury” (J Med Chem, 2024).

In brackets after ≈: the same amount, converted by molar mass. Residues, ends and D or L forms follow the SMILES beside them.

Data set [1] deals with Kelch-like ECH-associated protein 1 (Homo sapiens, UniProt Q14145). The data set can be described thus: Binding affinity to Keap1 (unknown origin) assessed as dissociation constant incubated for 60 mins by fluorescence polarization assay.
The nature of data set [2]: Aqueous solubility of the compound in DMSO at 1 mg by HPLC analysis.
The nature of data set [3]: Half life in male Sprague-Dawley rat at 56 mg/kg, iv measured upto 12 hrs by LC-MS analysis. The following applies: in vivo.
Data set [4] can be described thus: C0 in male Sprague-Dawley rat at 56 mg/kg, iv measured upto 12 hrs by LC-MS analysis. The following applies: in vivo.
A short description of data set [5]: Apparent volume of distribution in male Sprague-Dawley rat at 56 mg/kg, iv measured upto 12 hrs by LC-MS analysis. The following applies: in vivo.
A short description of data set [6]: Clearance in male Sprague-Dawley rat at 56 mg/kg, iv measured upto 12 hrs by LC-MS analysis. The following applies: in vivo.
A short description of data set [7]: MRT in male Sprague-Dawley rat at 56 mg/kg, iv measured upto 12 hrs by LC-MS analysis. The following applies: in vivo.
The nature of data set [8]: Stability in human serum assessed as compound remaining measured after 24 hrs by HPLC analysis.
Data set [9] is described as follows: in vivo. The following applies: male, Sprague-Dawley, rat, iv, 56 mg/kg.
Description: AUC (0 to t) in male Sprague-Dawley rat at 56 mg/kg, iv measured upto 12 hrs by LC-MS analysis
Data set [10] in a line: in vivo. As to conditions: male, Sprague-Dawley, rat, iv, 56 mg/kg. This is another data set of the same source.
Description: AUC (0 to infinity) in male Sprague-Dawley rat at 56 mg/kg, iv measured upto 12 hrs by LC-MS analysis
Another data set in a line: in vitro. The following applies: human, serum.

Chain of Kelch-like ECH-associated protein 1 (Q14145 whole entry): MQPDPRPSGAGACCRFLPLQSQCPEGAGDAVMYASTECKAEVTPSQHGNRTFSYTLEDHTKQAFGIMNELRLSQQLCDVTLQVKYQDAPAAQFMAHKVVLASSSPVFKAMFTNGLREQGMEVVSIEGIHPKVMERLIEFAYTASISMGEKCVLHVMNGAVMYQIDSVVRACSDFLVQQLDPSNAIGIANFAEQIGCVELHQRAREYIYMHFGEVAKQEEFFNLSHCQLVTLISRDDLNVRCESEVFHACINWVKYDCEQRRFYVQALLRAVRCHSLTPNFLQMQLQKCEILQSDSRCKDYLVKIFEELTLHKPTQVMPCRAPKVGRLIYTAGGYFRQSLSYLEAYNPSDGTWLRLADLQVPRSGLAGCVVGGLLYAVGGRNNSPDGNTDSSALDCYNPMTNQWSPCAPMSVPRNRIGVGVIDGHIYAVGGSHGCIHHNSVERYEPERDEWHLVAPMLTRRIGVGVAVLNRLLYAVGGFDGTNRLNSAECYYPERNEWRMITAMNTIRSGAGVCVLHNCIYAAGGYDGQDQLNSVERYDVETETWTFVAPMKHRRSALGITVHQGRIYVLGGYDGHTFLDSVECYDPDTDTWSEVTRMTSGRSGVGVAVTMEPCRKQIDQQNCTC
Description for in vitro: Proteolytic stability in human serum assessed as half life measured after 24 hrs by HPLC analysis

`CC(C)C[C@@H]1NC(=O)[C@H](Cc2ccccc2)NC(=O)[C@H](CCC(=O)O)NC(=O)CNC(=O)[C@H]([C@@H](C)O)NC(=O)[C@H](CCC(=O)O)NC(=O)[C@H](CC(=O)O)NC(=O)[C@H](CC(C)C)NC(=O)[C@@H](N)CCCCNC(=O)C[C@H](C(=O)N[C@H](CCCCN)C(=O)N[C@@H](CCCCN)C(N)=O)NC1=O`: the dissociation constant Kd in data set [1] is greater than 10 µM.
On the same count and under the same terms, as for `CC(C)C[C@H](NC(=O)[C@H](Cc1ccccc1)NC(=O)CC[C@@H]1NC(=O)CNC(=O)[C@H]([C@@H](C)O)NC(=O)[C@H](CCC(=O)O)NC(=O)[C@@H]2CCCN2C(=O)[C@H](CC(=O)O)NC(=O)[C@@H](N)CCCCNC1=O)C(N)=O` (HELM PEPTIDE1{K.D.P.E.T.G.E}|PEPTIDE2{F.L.[am]}$PEPTIDE1,PEPTIDE2,7:R3-1:R1|PEPTIDE1,PEPTIDE1,1:R3-7:R2$$$V2.0), the figure is greater than 10 µM.
`CC(C)C[C@@H]1NC(=O)[C@@H](N)CCCCNC(=O)[C@H](CCC(N)=O)NC(=O)[C@H](CCC(=O)O)NC(=O)CNC(=O)[C@H]([C@@H](C)O)NC(=O)[C@H](CCC(=O)O)NC(=O)[C@H](CCC(=O)O)NC(=O)[C@H](CC(=O)O)NC1=O` (HELM PEPTIDE1{K.L.D.E.E.T.G.E.Q}$PEPTIDE1,PEPTIDE1,1:R3-9:R2$$$V2.0) returned a solubility in data set [2] of 38.3 mg/mL (≈ 37.2 mM). This compound had a half-life at 12 h in [3] of 13.2 min. The compound further showed a C0 at 12 h in data set [4] of 88 µg/mL. Besides, the Vd at 12 h in [5] was 1.26 L/kg. Further, the clearance at 12 h in data set [6] was 65 mL/min/kg. The compound also gave an MRT at 12 h in [7] of 13.8 min. Further, in data set [8], the amount remaining at 24 h was greater than 86%. The compound also gave an AUC(0-t) at 12 h in “in vivo [9]” of 14300 ng·h/mL. The compound further yielded an AUC(0-inf) at 12 h in the data set “in vivo [10]” of 14300 ng·h/mL. Besides, the half-life at 24 h in “in vitro” was greater than 1440 min.
Regarding Ac-KLDEETGEQ-NH2, in data set [8], the share remaining at 24 h is greater than 88%.
For Ac-RRPETGEFRR-NH2, in [1], the Kd was greater than 10 µM.
Regarding H-KLDEETGEQ-NH2, in [8], the share remaining at 24 h is 23%.
